This note sets out measurements from patent US20250288624A1, “LONG-TERM STABILIZATION, FORMULATION AND TABLETING OF LIVE MICROBIAL CELLS” (priority 2022, published 2025).

Experiment [1] deals with Escherichia coli Nissle 1917, Ensifer meliloti, Saccharomyces boulardii, Lactobacillus plantarum. Put plainly: High throughput pipeline for microbial material stabilizers (Viability Score after freeze-drying). The class given is cell-based. Particulars: for viability score: after freeze-drying and 24 hours at room temperature, across the 4 microorganisms, score 0 to 1. The protocol: It was hypothesized that a synthetic extremophile that could survive in the dry state could then be enhanced to survive additional environmental insults using material formulation techniques applied to the dry powder (e.g., coating)^9. Therefore, a library was screened, composed primarily of materials generally recognized as safe (GRAS) by the Food and Drug Administration (FDA) for their ability to protect microbes through freeze-drying and survival at room temperature for 24 hours (Table 2). This materials library was applied to 4 microorganisms (Escherichia coli Nissle 1917, Ensifer meliloti, Saccharomyces boulardii, Lactobacillus plantarum) that span a wide range of phylogenetic backgrounds, are technologically important and genetically tractable. Each microorganism was mixed with each of the 260 materials at two different concentrations to give 2,080 microbial-material formulations.
Microbial strains were precultured overnight in 5 mL liquid medium at the appropriate conditions (see above). The overnight culture was diluted 1:1000 fold into three replicates of 125 mL of fresh liquid medium in a flask and cultured for 24 hours. The optical density (OD600) of each replicate culture was recorded (typically 2-2.5 for E. coli Nissle 1917, E. meliloti, L. plantarum and 5-6 for S. boulardii) and the cells were pelleted at 3220 rcf for 15 minutes. The cell pellets were then resuspended in PBS (E. meliloti, L. plantarum, S. boulardii) or spent medium (E. coli Nissle 1917) to a final OD600 of 2.25 and used immediately.
The material library was prepared by mixing each material with ultrapure water to the specified concentration (1×, 5×) in Table 2. The material solutions were arrayed in sealed deep well plates and kept at −20° C. until needed. On the day of use, the material plates were thawed at room temperature, vortexed well and centrifuged briefly.
To freeze-dry, each replicate microbial cell suspension (25 uL) was mixed with the arrayed materials (75 uL) in batch into flat-bottom 96-well plates using a liquid handling robot (Tecan, EVO 150). […]
(§1) The viability of the stored microbial-material combinations was determined by rehydrating in water, making 10-fold serial dilutions in PBS, plating onto the appropriate solid medium and quantifying the resulting colonies. […]
(§2) To assign a Viability Score, using FIJI (imageJ), the 16-bit tiff plate images were programmatically separated into individual spot images, each spot was segmented, and several image attributes were measured (raw particle count, mean background value, mean segmented region value, segmented region area). […]

Another experiment concerns E. coli Nissle 1917. Put plainly: Validation of two-material combinations at 37° C. The format is cell-based, Escherichia coli. Conditions: in combination with melibiose, larger format. As to the method: E. coli Nissle 1917 was prepared as described above (see “Vial-based viability validation”) with a few modifications: the flask culture was 2 L and incubated for 17-18 hours and the final cell suspension in PBS was set to an OD600 of 10-12.
To freeze-dry, the cell suspension (12.5 mL) was mixed with the target material combination (37.5 mL), poured into rectangular 1-well plates, and placed into a tray freeze dryer with shelfs pre-cooled to −40° C. and on custom 0.25-inch aluminum pedestals to ensure heat transfer to the plates. Samples were dried as described above (see “High throughput pipeline”). […]
The viability of the stored samples was assessed by hydrating the samples with 1 mL PBS, making 10-fold serial dilutions, spotting ˜1.5 uL of each dilution in triplicate onto LB agar in 1-well rectangular plates using a pin replicator (V&P Scientific, VP 407A), incubating at 37° C., and counting colonies on the strongest dilution that gives >1 colony per spot. Total CFU counts per sample were calculated by first dividing spot counts by the spotted volume and multiplying by the dilution factor and total rehydration volume, and then averaging across the three spotting replicates. Total CFU counts per mass were calculated by dividing the CFU counts per sample by the mass of the stored sample. Three independently stored replicate samples were analyzed as described. […]

For another experiment, the system named is Medicago truncatula A17. Put plainly: Plant nodulation assay with stabilized E. meliloti. The class given is in vivo. Particulars: E. meliloti formulated in the material, 50° C. shock for 24 hours, rehydrated, applied to seedlings. The protocol:
E. meliloti cultures were prepared as described above (see “High throughput pipeline for microbial material stabilizers”) and freeze-dried with the specified stabilizers following the 1-well plate method described in “Validation of two-material combinations”. The bagged, stabilized powders were exposed to 50° C. for 24 hours in a static incubator and then kept in the dark at 4° C. until used.
Nodulation of Medicago truncatula A17 was assayed according to a protocol from Sadowsky et al. modified to growth in pouches^20-22. Specifically, M. truncatula A17 seeds (Noble Research Institute) were scarified by submerging in concentrated sulfuric acid for 8-9 minutes, washed 8× with sterile water, sterilized by submerging in 8.25% sodium hypochlorite for 90 seconds, washed 8× with sterile water, allowed to imbibe in sterile water for ˜1 hour, placed on 1% agar plates, sealed with parafilm and foil, vernalized at 4° C. in the dark for 5 days and germinated at 23° C. in the dark for 20 hours. […]
The pouches were left undisturbed for 6 days, watered with 5 mL of 1/2×BNM as necessary and then inspected for nodules every other day. On day 12, the number of nodulated seedlings in each pouch was counted. The percent nodulated seedlings was calculated by dividing the number of nodulated seedlings by the total number of seedlings in the pouch.

Another experiment deals with E. meliloti. Put plainly: Heat shock screen of material library at 50° C. for 24 hours (Viability Score). The format is cell-based, Ensifer meliloti. The protocol: FIG. 18. E. meliloti stabilizers against 24 hours at 50° C. Extended data of FIG. 8. E. meliloti was mixed with the material library at the 1×concentration, freeze dried, and exposed to 50° C. for 24 hours. The viability score was characterized as in FIG. 8, and the data is ordered by the viability score of the comparison values when stored at 23° C.
E. meliloti is currently used as a seed inoculant prior to planting, however, there remains a need for improved stability of the microbial product present during formulation, storage, and seed inoculation, particularly when it comes to tolerance to elevated temperatures above 40° C.^28,29. […] Functional symbiosis was measured as percent of seedlings that successfully formed nodules. […]
as §1, §2

As to `O=S([O-])S(=O)(=O)[O-].[Na+].[Na+]` [sodium metabisulfite], the viability score in experiment [1] amounted to 0.
`OC[C@H]1O[C@H](OCC2O[C@@H](O)[C@H](O)[C@@H](O)[C@@H]2O)[C@H](O)[C@@H](O)[C@H]1O` (stereo partly drawn) [melibiose]: the “performance in stabilizer screen” value in experiment [1] (E. coli Nissle 1917) was “best performing material”.
Turning to `OC[C@H]1O[C@H](O[C@H]2O[C@H](CO)[C@@H](O)[C@H](O)[C@H]2O)[C@H](O)[C@@H](O)[C@@H]1O` [trehalose], the viability score entry in experiment [1] was “measurable viability”.
Regarding `Cn1c(=O)c2c(ncn2C)n(C)c1=O` [caffeine], the “stability of two-material formulation at extended storage times” value with E. coli Nissle 1917 is reported as “robust”.
In the case of `OC[C@H]1O[C@@](CO)(O[C@H]2O[C@H](CO)[C@@H](O)[C@H](O)[C@H]2O)[C@@H](O)[C@@H]1O` [sucrose], the “nodulation of M. truncatula seedlings by stabilized E. meliloti” value with Medicago truncatula A17 is “successfully nodulate”. The “material class in heat shock screen (synthetic thermotolerance)” value in the experiment on E. meliloti is “optimal”.
As to `[Na+].[OH-]` [sodium hydroxide], the viability score in experiment [1] was 0.
`OC[C@H]1O[C@H](O[C@H]2[C@H](O)[C@@H](O)C(O)O[C@@H]2CO)[C@H](O)[C@@H](O)[C@@H]1O` (mixture of isomers) [maltose]: the “nodulation of M. truncatula seedlings by stabilized E. meliloti” value with Medicago truncatula A17 is listed as “successfully nodulate”. For the same molecule, the “material class in heat shock screen (synthetic thermotolerance)” value with E. meliloti is on record as “optimal”.
